ChEMBL document CHEMBL1144459, “Discovery of potent thiosemicarbazone inhibitors of rhodesain and cruzain” (Bioorg Med Chem Lett, 2005)

How the values were obtained:
[1] = target: Cruzipain (Trypanosoma cruzi, UniProt P25779); assay: Inhibitory concentration against cruzain of Trypanosoma cruzi
[2] = target: Rhodesain (Trypanosoma brucei rhodesiense, UniProt Q95PM0); assay: Inhibitory concentration against rhodesain of Trypanosoma brucei rhodesience
[3] = tested on: Trypanosoma cruzi; assay: Effective dose to inhibit proliferation of Trypanosoma cruzi in cell assay; assay type: functional; details: read-out: ED50 (the source's name)
[4] = target: T1, Falcipain 2 (Plasmodium falciparum, UniProt Q9N6S8); assay: Inhibitory concentration against falcipain-2 of Plasmodium falciparum W2
T1 sequence (Q9N6S8 whole entry): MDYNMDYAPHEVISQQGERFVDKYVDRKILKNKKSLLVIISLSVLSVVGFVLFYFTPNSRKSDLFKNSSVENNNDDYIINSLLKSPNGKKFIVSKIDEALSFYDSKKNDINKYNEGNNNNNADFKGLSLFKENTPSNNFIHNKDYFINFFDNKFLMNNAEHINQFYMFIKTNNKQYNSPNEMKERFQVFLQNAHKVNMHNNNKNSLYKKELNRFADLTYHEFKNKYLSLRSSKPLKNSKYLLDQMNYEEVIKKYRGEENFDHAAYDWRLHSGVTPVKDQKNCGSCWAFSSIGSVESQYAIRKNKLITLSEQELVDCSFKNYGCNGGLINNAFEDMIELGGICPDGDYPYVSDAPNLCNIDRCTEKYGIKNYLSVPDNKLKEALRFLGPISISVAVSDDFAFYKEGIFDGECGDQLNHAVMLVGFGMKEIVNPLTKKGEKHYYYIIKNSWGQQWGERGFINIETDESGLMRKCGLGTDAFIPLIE

[5] = tested on: Trypanosoma brucei rhodesiense; assay: Effective dose to inhibit proliferation of Trypanosoma brucei rhodesiense in cell assay; assay type: functional; details: read-out: ED50 (the source's name)
[6] = tested on: Plasmodium falciparum; assay: Effective dose against Plasmodium falciparum W2; Not active; assay type: functional; details: read-out: ED50 (the source's name)
[7] = tested on: Plasmodium falciparum; assay: Effective dose against Plasmodium falciparum W2; assay type: functional; details: read-out: ED50 (the source's name)

Chain of Rhodesain (Q95PM0 whole entry): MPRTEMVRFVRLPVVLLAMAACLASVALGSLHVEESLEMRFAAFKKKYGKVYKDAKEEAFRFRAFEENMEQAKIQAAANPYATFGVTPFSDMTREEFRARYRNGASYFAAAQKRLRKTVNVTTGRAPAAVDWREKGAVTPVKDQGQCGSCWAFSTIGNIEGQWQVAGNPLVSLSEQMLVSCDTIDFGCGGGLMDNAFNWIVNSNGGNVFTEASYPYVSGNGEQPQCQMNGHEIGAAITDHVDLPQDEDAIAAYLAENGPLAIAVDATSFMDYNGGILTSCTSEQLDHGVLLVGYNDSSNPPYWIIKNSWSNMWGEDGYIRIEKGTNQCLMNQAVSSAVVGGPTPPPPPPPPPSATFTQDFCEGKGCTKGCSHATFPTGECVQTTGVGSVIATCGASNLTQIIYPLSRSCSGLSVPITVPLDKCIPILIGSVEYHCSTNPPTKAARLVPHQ
Chain of Cruzipain (P25779 whole entry): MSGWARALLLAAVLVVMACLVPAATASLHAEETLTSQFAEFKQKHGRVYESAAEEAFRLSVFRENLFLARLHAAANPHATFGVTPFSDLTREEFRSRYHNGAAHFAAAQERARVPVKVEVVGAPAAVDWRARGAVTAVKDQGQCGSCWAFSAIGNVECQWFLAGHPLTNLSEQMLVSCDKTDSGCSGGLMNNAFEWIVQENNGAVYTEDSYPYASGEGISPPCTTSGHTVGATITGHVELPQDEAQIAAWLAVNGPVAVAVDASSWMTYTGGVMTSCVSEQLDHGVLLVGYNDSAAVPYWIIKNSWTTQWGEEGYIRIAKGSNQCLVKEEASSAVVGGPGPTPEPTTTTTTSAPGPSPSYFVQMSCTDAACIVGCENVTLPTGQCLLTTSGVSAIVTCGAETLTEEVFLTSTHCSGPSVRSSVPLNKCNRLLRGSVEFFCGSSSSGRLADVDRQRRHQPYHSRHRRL

| Structure (SMILES) | IC50 [1] [nM] | IC50 [2] [nM] | EC50 [3] [nM] | IC50 [4] [nM] | EC50 [5] [nM] | EC50 [6] [nM] | EC50 [7] [nM] |
| --- | --- | --- | --- | --- | --- | --- | --- |
| CC/C(=N\N=C(\N)S)c1ccc(Cl)c(Cl)c1 | 30 | 110 |  |  |  |  |  |
| CCCC/C(=N\NC(N)=S)c1ccc(Cl)c(Cl)c1 | 19 | 60 | 3000 | 620 | 130 |  |  |
| N/C(S)=N/N=C(\COc1ccccc1)c1ccc(Cl)c(Cl)c1 | 30 | 70 |  | 375 | 1500 |  |  |
| CC/C(=N\NC(N)=S)c1cccc(Br)c1 |  | 230 |  |  |  |  |  |
| N/C(S)=N/N=C(/c1ccc(Cl)c(Cl)c1)C1CC1c1ccccc1 (configuration not stated) | 30 | 60 |  | 640 | 570 |  |  |
| Cc1ccc(/C(=N\N=C(\N)S)c2ccc(Cl)c(Cl)c2)cc1 | 40 | 38 |  | 1800 |  |  |  |
| N/C(S)=N/N=C(/c1ccc(Cl)c(Cl)c1)C1CCCCC1 | 3000 | 1100 |  | 14000 |  |  |  |
| N/C(S)=N/N=C(\C=C\c1ccccc1)c1ccc(Cl)c(Cl)c1 | 30 | 38 |  | 470 | 72 | 9000 |  |
| N/C(S)=N/N=C(\Cc1ccccc1)c1ccc(Cl)c(Cl)c1 | 80 | 80 |  | 8400 |  |  | 19000 |
| N/C(S)=N/N=C(\CCc1ccccc1)c1ccc(Cl)c(Cl)c1 | 40 | 90 |  | 2600 | 69 |  |  |
| CC(C)(C)/C(=N\N=C(\N)S)c1ccc(Cl)c(Cl)c1 | > 10000 | 3330 |  |  |  |  |  |
